{"source": "paper PMC5728361", "about": "(Structure (London, England : 1993), 2017)", "molecular_target": "PLC-δ1 PH domain (Homo sapiens, UniProt P51178)", "sequence (P51178 21-130)": "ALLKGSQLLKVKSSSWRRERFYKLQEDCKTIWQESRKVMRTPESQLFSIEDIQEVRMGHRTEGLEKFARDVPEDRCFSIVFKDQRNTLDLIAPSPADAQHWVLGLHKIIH", "type": "binding", "conditions": "pH 7.5"}
{"substance": "L-α-phosphatidylinositol-4,5-bisphosphate [PI(4,5)P2]", "values": [{"measurement": "PIP-binding specificity of PLC-δ1 PH domain", "result": "binding specificity"}]}
